Data published in PMC6805867, “Amphiphilic Triazine Polymer Derivatives as Antibacterial And Anti-atopic Agents in Mice Model” (Scientific Reports, 2019).

Legend:
[1] = tested on: selected bacterial strains; test: Geometric mean of MIC values over the bacterial strains; assay type: cell-based; settings: geometric mean of MIC values from selected six bacterial strains (footnote b)
Method: (§1) The bacterial strains employed in the experiment were Escherichia coli (KCTC 1682), Pseudomonas aeruginosa (KCTC 1637), Bacillus subtilis (KCTC 3068), Staphylococcus aureus (KCTC 1621), three methicillin-resistant Staphylococcus aureus (CCARM 3089, 3090 and 3095), two multidrug-resistant Pseudomonas aeruginosa (CCARM 2095 and 2109) and vancomycin-resistant Enterococcus faecium (ATCC 51559). The antimicrobial activities of polymers were determined by the broth microdilution method, and the procedures were used as previously reported. Briefly, bacteria grown to mid-logarithmic phase in LB broth were diluted to 2 × 10^6 CFU/mL in 1% peptone and added to serial two-fold dilutions of different polymers ranging from 1 to 64 μg/mL. The plates were incubated in a shaking incubator at 37 °C for 18–22 h. The minimum inhibitory concentration (MIC) was determined by confirming the absence of bacterial growth both visually and spectrophotometrically by OD600 readings taken by a microplate ELISA reader (Molecular Devices, Sunnyvale, CA, USA). All measurements were performed three times.

[2] = tested on: inflammatory cytokine expression in dorsal skin tissue; test: DNCB-induced AD model, cytokine mRNA expression by real-time PCR; assay type: in vivo, BALB/c mice; settings: AD-like skin lesions, n = 8
Method: (§2) As described in our previous article, the 7-week-old female BALB/c mice were divided into seven groups (n = 8 per group): Control (Con) group, TZP3 200 μg/mL (TZP3) group, and TZP5 200 μg/mL (TZP5) group, DNCB-sensitized only (AD) group, DNCB-sensitized + TZP3 200 μg/mL (AD + TZP3) group, DNCB-sensitized + TZP5 200 μg/mL (AD + TZP5) group, DNCB-sensitized + Dermatop (Sanofi, Korea) 0.25% (AD + Dermatop) group. Dermatop was used as a positive control treatment. For the first induction of AD in the BALB/c mice, the backs of the mice were shaved and challenged with 200 μL of 1% 2,4-dinitrochlorobenzene(DNCB) in acetone/olive oil (3:1) one time (day−4). After 4 days from the induction, 0.5% DNCB was painted onto the backs of the mice every two days (day 2, 4, 6, 8, 10, 12, 14, 16 and 18). Concentrations of 200 μg/mL TZP3 or TZP5 in 20 μL of PBS were applied to the dorsal skin once daily for 18 days.
For the reverse transcription (RT) - polymerase chain reaction (PCR), the total cellular RNA was isolated from the dorsal skin tissue of each treatment group using TRIzol according to the manufacturer’s protocol. The first-strand complementary DNA (cDNA) was synthesized using Superscript II reverse transcriptase (Invitrogen). The conditions for RT-PCR were similar ones that have been previously described in related studies. Quantitative real-time PCR was carried out using a Thermal Cycler Dice TP850 (Takarabio Inc., Shiga, Japan) according to the manufacturer’s protocol. Briefly, 2 μL of cDNA (100 ng), 1 μL of sense and antisense primer solution (0.4 µM), 12.5 μL of SYBR Premix Ex Taq (Takarabio Inc.), and 9.5 μL of dH2O were mixed to obtain a final 25-μL reaction mixture in each reaction tube. The amplification conditions were as follows: 10 s at 95 °C, 40 cycles of 5 s at 95 °C and 30 s at 60 °C, 15 s at 95 °C, 30 s at 60 °C, and 15 s at 95 °C. The mRNA levels of the target genes relative to that of GAPDH were normalized as follows: relative mRNA expression = 2^-(ΔCt of target gene−ΔCt of GAPDH), where Ct is the threshold cycle value. In each sample, the expression level of the analyzed gene was normalized to that of GAPDH and presented as a relative mRNA level.

[3] = tested on: Vancomycin-resistant Enterococcus faecium (VREF) ATCC 51559; test: MIC against antibiotic-resistant bacteria; assay type: cell-based; settings: broth microdilution, 37 °C, 18–22 h
Method: as §1

[4] = tested on: TGF-β, TNF-α, iNOS, COX-2 protein in dorsal tissue; test: DNCB-induced AD model, western blot of inflammatory mediators; assay type: in vivo, BALB/c mice; settings: versus AD mice
Method: as §2
Frozen skins from the mice were homogenized in liquid nitrogen. For the western blot analysis, the tissues were lysed in a RIPA lysis buffer(Sigma) containing 1% protease inhibitor. The cell lysates were incubated on ice for 1 h and then the homogenates were centrifuged at 13000 rpm for 20 min at 4 °C. […] The antibody-specific proteins were visualized with enhanced chemiluminescence (ECL) detection reagent and quantified using the ImageJ software. […]

Structure (SMILES) | GM (geometric mean of MIC values) [1] | IL-4 suppression (mRNA expression) [2] | inhibition of IFN-γ mRNA expression [2] | inhibition of IL-1β mRNA expression [2] | inhibition of IL-13 mRNA expression [2] | inhibition of IL-17 mRNA expression [2] | inhibition of TNF-α mRNA expression [2] | suppression of IL-6 mRNA expression [2] | suppression of IL-10 mRNA expression [2] | MIC VREF ATCC 51559 [3] | protein expressions (TGF-β, TNF-α, iNOS, COX-2) in dorsal tissue [4]
NCCCN(CCCN)c1nc(N)nc(NCCNc2nc(Cl)nc(N(Cc3ccccc3)Cc3ccccc3)n2)n1 [TZP3] | 4.5 [7.6] μg/mL | around 35% | around 60% | more than 70% | more than 70% | 60% | approximately 55% | around 60% | around 35% | 8 [13.5] µg/mL | significant decrease
NCCCN(CCCN)c1nc(Cl)nc(NCCNc2nc(NCCNc3nc(N)nc(NCCC(c4ccccc4)c4ccccc4)n3)nc(N(CCCN)CCCN)n2)n1 [TZP5] | 3.0 µg/mL | around 35% | around 60% | > 75% | > 75% | more than 85% | ~65% | ~50% | almost similar potency with the dermatop | 4 [3] µg/mL | significant decrease
